These are literature values, as cited in article PMC7062412 (Drug Design, Development and Therapy, 2020).

In one series the test system is ET-1. To be noted: overall animals, isolated organs, cells and subcells.

Take `O=C(O)/C=C/c1ccc(O)c(O)c1` [Caffeic Acid, caffeic acid]: the “half-life in the body” value is 30 to 60 min. In the series on ET-1, the “antagonistic biological effect on ET-1” value is listed as “had an antagonistic biological effect on ET-1”.
